Biological target: T1, human ANO6 (Homo sapiens, UniProt Q4KMQ2)
T1 construct: expressed in transfected cells
T1 sequence (Q4KMQ2 1-931 isoform Q4KMQ2-2): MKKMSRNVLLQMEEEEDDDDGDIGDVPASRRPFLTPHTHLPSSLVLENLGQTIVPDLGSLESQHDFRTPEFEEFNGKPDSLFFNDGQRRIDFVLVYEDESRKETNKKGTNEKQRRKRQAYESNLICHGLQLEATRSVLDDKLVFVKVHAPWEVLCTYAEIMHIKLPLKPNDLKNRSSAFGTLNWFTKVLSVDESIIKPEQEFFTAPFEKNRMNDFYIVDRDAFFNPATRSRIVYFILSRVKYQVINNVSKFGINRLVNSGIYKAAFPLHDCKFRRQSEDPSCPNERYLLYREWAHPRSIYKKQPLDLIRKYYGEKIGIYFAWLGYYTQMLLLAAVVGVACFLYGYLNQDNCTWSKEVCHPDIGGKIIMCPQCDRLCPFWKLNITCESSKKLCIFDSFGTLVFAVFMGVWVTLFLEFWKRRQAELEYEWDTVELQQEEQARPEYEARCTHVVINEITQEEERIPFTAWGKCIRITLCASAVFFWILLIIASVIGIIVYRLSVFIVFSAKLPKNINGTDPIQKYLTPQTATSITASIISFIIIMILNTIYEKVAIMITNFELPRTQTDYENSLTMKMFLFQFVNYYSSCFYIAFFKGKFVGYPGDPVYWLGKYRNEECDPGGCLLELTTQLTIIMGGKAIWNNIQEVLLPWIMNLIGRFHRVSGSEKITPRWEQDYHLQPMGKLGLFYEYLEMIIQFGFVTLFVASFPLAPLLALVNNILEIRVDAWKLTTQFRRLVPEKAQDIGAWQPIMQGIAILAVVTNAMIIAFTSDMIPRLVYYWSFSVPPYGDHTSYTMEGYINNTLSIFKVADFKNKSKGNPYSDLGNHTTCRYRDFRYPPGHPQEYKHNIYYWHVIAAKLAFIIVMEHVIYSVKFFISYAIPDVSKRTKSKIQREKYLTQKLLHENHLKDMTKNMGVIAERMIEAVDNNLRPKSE
Test: LACT C2 assay (phosphatidylserine scramblase function assay)
Assay type: cell-based
Settings: FRT cells expressing human ANO6, 10 μM ionomycin; for inhibition at 0.1 µM: test compound 100 nM, read-out: Inhibition Level 100 nM; for inhibition at 1 µM: test compound 1 μM, read-out: Inhibition Level 1 μM
Source text: Phosphatidylserine Scramblase Function Assay
1. Materials and Instruments
Ionomycin (Alomonelab, cat. #I-700), DAPI (Sigma-Aldrich, cat. #D8417), paraformaldehyde (Biosesang, cat. #P2031), Lionheart FX Automated Microscope (BioTek, Winooski), Python3 (Python Software Foundation), and OpenCV (Open Source Computer Vision Library).
Fisher rat thyroid (FRT) cells stably expressing human ANO6 (GenBank accession no. NP_001191732.1, provided by J. H. Nam, Dongguk University College of Medicine, Korea) were grown in DMEM/Ham's F-12 (1:1) medium with 10% FBS, 2 mM L-549 glutamine, 100 units/mL penicillin, and 100 μg/mL streptomycin at 37° C. and 5% CO2.
FRT cells stably expressing human ANO6 were plated in 96 well black-walled microplates at a density of 2×10^4 cells/well. After 24 hours incubation, cells were treated with the test compound (dissolved in DMSO) were treated to each well to become 1% v/v DMSO for 10 minutes, then 10 μM of ionomycin was applied. Finally each well was washed with 200 μL PBS after 10 minutes. After washout, the phosphatidylserine and nuclei were stained with PBS containing 500 nM Lactadherin-C2 (Lact-C2)-GFP, then cells were washed with 200 μL PBS. Cells were fixed with 4% paraformaldehyde for 5 minutes at room temperature. For morphological analysis, some cells were stained with fluorescently labelled DAPI for 15 minutes at room temperature. Quantitative analysis of the fluorescence intensity of Lact-C2-GFP was performed with Python3 and OpenCV. OpenCV was used to remove background and noise pixels, and the sum of all remaining pixel values was used to evaluate the fluorescence intensity of Lact-C2-GFP.
The inhibitory activity (%) of each of the test compounds was obtained by the following steps. In each row of 96 well plate, the inhibitory activity of each of the test compounds was calculated as percentages. The inhibitory activity of a negative control group to which neither compounds nor ionomycin were treated was set to be 100%, and the inhibitory activity of a positive control group to which ionomycin was treated and compounds were not treated was set to be 0%. The assay was performed in triplicate, and the results were averaged.

| SMILES | inhibition at 0.1 µM [%] | inhibition at 1 µM [%] |
| --- | --- | --- |
| O=C(NCc1ccccc1Br)c1cccc(Nc2ncc(-c3cccc(F)c3)cn2)c1 [Compound 216, N-(2-bromobenzyl)-3-((5-(3-fluorophenyl)pyrimidin-2-yl)amino)benzamide] | < 30 | < 30 |
| O=C(Nc1cccc([N+](=O)[O-])c1)c1cccc(Nc2ncc(-c3cccc(F)c3)cn2)c1 [Compound 137, 3-((5-(3-fluorophenyl)pyrimidin-2-yl)amino)-N-(3-nitrophenyl)benzamide] | < 30 | ≥ 60 |
| O=C(NCc1ccccc1C(F)(F)F)c1cccc(Nc2ncc(-c3cccc(F)c3)cn2)c1 [Compound 204, 3-((5-(3-fluorophenyl)pyrimidin-2-yl)amino)-N-(2-(trifluoromethyl)benzyl)benzamide] | < 30 | 30 to 60 |
| O=C(NCc1ccc(C(F)(F)F)cc1)c1cccc(Nc2ncc(-c3cccc(F)c3)cn2)c1 [Compound 202, 3-((5-(3-fluorophenyl)pyrimidin-2-yl)amino)-N-(4-(trifluoromethyl)benzyl)benzamide] | < 30 | 30 to 60 |
| O=C(O)c1cccc(CCNC(=O)c2cccc(Nc3ncc(-c4cccc(F)c4)cn3)c2)c1 [Compound 129, 3-(2-(3-((5-(3-fluorophenyl)pyrimidin-2-yl)amino)benzamido)ethyl)benzoic acid] | < 30 | < 30 |
| CNc1cccc(NC(=O)c2cccc(Nc3ncc(-c4cccc(F)c4)cn3)c2)c1 [Compound 177, 3-((5-(3-fluorophenyl)pyrimidin-2-yl)amino)-N-(3-(methylamino)phenyl)benzamide] | < 30 | – |
| O=C(N[C@@H]1C[C@H]1c1ccc(F)cc1)c1cccc(Nc2ccc(-c3ccccc3)nn2)c1 [Compound 199] | ≥ 60 | ≥ 60 |
| O=C(N[C@@H]1C[C@H]1c1ccccc1)C12CCC(Nc3ccc(-c4ccccc4)nn3)(CC1)C2 [Compound 168, (1s,4s)-N-((1R,2S)-2-phenylcyclopropyl)-4-((6-phenylpyridazin-3-yl)amino)bicyclo[2.2.1]heptane-1-carboxamide] | < 30 | – |
| CN1CCN(Cc2ccc(NC(=O)c3cccc(Nc4ncc(-c5cccc(F)c5)cn4)c3)cc2)CC1 [Compound 135, 3-((5-(3-fluorophenyl)pyrimidin-2-yl)amino)-N-(4-((4-methylpiperazin-1-yl)methyl)phenyl)benzamide] | < 30 | 30 to 60 |
| Cc1ccc([C@@H]2C[C@H]2NC(=O)c2cccc(Nc3ccc(-c4ccccc4)nn3)c2)cc1 [Compound 235, 3-((6-phenylpyridazin-3-yl)amino)-N-((1R,2S)-2-(p-tolyl)cyclopropyl)benzamide] | 30 to 60 | ≥ 60 |
| COc1ccc([C@@H]2C[C@H]2NC(=O)c2cccc(Nc3ccc(-c4ccccc4)nn3)c2)cc1 [Compound 236, N-((1R,2S)-2-(4-methoxyphenyl)cyclopropyl)-3-((6-phenylpyridazin-3-yl)amino)benzamide] | < 30 | ≥ 60 |
| O=C(N[C@@H]1C[C@H]1c1ccccc1)c1cncc(Nc2ncc(-c3ccccc3)cn2)c1 [Compound 156, N-((1R,2S)-2-phenylcyclopropyl)-5-((5-phenylpyrimidin-2-yl)amino)nicotinamide] | < 30 | 30 to 60 |

The next lines start with the values.

| inhibition at 0.1 µM [%] | inhibition at 1 µM [%] | SMILES |
| --- | --- | --- |
| < 30 | ≥ 60 | O=C(Nc1cccc(F)c1)c1cccc(Nc2ncc(-c3cccc(F)c3)cn2)c1 [Compound A91] |
| < 30 | 30 to 60 | CN(CCCNC(=O)c1cccc(Nc2ccc(-c3ccccc3)nn2)c1)Cc1ccccc1 [Compound A95] |
| < 30 | 30 to 60 | O=C(NCc1ccc(Cl)cc1)c1cccc(Nc2ncc(-c3cccc(F)c3)cn2)c1 [Compound A101] |
| < 30 | – | O=C(Nc1ccccc1)c1cccc(Nc2ncc(-c3cccc(F)c3)cn2)c1 [Compound A93] |

Source: patent publication US20230080054A1 (ILDONG PHARMACEUTICAL CO., LTD., priority 2021, published 2023)
